Source: ChEMBL document CHEMBL1201862, “PubChem BioAssay data set” (2004)
The source made the active and inactive calls.

Experiments:
[1] = target: T1, Protein skinhead-1 (Caenorhabditis elegans, UniProt P34707); format: functional
T1 sequence (P34707 whole entry): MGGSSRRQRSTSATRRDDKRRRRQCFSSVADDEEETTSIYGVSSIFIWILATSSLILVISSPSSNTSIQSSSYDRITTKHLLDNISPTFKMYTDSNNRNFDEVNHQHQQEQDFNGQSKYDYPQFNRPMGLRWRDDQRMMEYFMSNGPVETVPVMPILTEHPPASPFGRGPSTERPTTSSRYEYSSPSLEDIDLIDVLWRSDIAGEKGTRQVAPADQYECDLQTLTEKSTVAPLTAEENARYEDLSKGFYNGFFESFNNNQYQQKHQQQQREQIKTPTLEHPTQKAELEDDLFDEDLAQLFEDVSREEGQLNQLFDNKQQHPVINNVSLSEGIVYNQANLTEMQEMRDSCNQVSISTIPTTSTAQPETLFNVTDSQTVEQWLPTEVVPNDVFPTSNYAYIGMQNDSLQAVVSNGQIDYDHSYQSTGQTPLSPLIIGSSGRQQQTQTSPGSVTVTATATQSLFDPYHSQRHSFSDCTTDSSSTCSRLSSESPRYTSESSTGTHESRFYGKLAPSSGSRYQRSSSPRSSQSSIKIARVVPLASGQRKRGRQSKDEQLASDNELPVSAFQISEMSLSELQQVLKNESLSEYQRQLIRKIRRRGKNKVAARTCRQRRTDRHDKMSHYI

[2] = target: T2, Corticotropin-releasing factor receptor 2/Corticotropin-releasing factor-binding protein (Homo sapiens, UniProt P24387+Q13324); assay: Dose Response confirmation of uHTS hits for small molecule antagonists of the CRF-binding protein and CRF-R2 receptor complex.; format: functional; settings: read-out: IC50_Mean
T2 sequence (Q13324 whole entry): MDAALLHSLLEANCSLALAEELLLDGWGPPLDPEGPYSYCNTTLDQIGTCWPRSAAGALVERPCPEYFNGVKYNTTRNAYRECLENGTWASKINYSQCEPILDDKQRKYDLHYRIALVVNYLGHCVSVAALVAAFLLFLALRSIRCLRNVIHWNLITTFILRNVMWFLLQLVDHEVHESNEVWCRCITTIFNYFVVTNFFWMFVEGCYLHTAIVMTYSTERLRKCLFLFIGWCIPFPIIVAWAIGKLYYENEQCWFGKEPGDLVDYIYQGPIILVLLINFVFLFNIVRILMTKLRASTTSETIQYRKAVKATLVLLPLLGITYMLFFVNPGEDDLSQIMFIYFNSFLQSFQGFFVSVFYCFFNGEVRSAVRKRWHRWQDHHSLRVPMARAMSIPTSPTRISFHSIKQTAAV
T2 sequence (P24387 whole entry): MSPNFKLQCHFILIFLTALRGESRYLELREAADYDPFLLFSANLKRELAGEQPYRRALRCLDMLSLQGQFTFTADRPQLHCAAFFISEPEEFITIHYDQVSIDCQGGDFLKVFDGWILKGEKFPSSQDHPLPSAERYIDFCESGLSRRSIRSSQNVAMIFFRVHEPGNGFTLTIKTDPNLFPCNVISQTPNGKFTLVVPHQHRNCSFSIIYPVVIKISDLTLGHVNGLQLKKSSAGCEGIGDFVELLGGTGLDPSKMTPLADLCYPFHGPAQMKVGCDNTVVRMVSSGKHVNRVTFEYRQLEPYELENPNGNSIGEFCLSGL

[3] = target: T2, Corticotropin-releasing factor receptor 2/Corticotropin-releasing factor-binding protein; assay: activators of CRF receptor 2 with binding protein – uHTS hits, confirmation (AID 602473); format: functional; settings: read-out: EC50_Mean
[4] = target: T3, Heat shock factor protein 1 (Mus musculus, UniProt P38532); assay: HSF1 potentiators in luciferase reporter cells, confirmation, cell-based, NIH3T3, luminescence, dose retest (AID 435004); format: functional;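 note: stress induced by proteasome inhibitor MG132 added 30 min after compound; luciferase reporter driven by HSF1 response element in NIH3T3 cells; actives raise luminescence as potentiators of the MG132 stress response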
T3 sequence (P38532 whole entry): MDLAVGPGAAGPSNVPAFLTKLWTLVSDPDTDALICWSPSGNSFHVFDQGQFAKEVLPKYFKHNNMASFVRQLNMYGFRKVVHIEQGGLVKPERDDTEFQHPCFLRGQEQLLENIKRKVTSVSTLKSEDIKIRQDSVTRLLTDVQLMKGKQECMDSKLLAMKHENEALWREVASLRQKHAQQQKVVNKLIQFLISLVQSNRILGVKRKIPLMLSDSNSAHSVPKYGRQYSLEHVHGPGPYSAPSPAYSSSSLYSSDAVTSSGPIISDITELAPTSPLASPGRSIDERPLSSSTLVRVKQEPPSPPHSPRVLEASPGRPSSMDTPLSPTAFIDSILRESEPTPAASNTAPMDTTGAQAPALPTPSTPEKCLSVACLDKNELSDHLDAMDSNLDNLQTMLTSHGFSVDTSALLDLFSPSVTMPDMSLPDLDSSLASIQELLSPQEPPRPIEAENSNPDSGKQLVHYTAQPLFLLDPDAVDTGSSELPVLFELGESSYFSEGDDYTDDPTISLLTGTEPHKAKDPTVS

[5] = target: T4, Cytochrome P450 1A2 (Homo sapiens, UniProt P05177);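 note: PubChem cytochrome P450 panel assay, CYP1A2 panel member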
T4 sequence (P05177 whole entry): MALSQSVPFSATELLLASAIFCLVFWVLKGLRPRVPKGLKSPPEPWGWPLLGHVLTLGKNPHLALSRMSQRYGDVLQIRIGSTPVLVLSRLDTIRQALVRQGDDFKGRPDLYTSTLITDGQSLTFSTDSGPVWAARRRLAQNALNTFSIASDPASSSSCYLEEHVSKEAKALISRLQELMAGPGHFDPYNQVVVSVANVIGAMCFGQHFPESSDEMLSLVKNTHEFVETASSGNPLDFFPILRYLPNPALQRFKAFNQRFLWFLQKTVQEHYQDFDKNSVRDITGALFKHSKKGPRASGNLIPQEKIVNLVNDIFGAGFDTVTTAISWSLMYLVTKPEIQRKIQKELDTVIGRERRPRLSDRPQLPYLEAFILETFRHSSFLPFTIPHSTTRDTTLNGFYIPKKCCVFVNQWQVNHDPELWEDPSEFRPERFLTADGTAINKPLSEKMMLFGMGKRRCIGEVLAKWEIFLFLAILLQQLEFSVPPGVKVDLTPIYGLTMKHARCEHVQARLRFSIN

[6] = target: Cytochrome P450 3A4 (Homo sapiens, UniProt P08684);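 note: CYP3A4 tested as one member of a cytochrome P450 panel screen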
[7] = target: Cytochrome P450 2C9 (Homo sapiens, UniProt P11712)
[8] = test system: H4; assay: Luminescence Cell-Based Dose Response HTS to Identify Activators of 5'UTR Stem-Loop Driven Prion Protein mRNA Translation in H4 Neuroglioblastoma Cells. [Related pubchem assays: 1829 (Project Summary), 1814 (Primary HTS)]; format: functional; settings: Homo sapiens
[9] = Luminescence Cell-Based Dose Response HTS to Identify Activators of Luciferase Translation or Activity in H4 […] Cells. [Related pubchem assays: 1829 (Project Summary), 1814 (Primary HTS)]; format: functional
[10] = cytotoxicity toward NIH3T3 fibroblasts, dose response, counter-screen, cell-based, ATP luminescence, mouse fibroblasts (AID 2010); format: functional;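 note: cells exposed to compound for about 90 hours before reading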
[11] = inhibitors of intracellular T. cruzi replication, confirmation, NIH3T3 host cells, beta-gal luminescence (AID 2044); format: functional, cell-based;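 note: intracellular parasites grown in NIH/3T3 mouse fibroblasts as host cells; luminescent beta-galactosidase reporter signal from transgenic T. cruzi replicating inside host cells; inhibitors lower the luminescence signal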

Chain of Cytochrome P450 3A4 (P08684 whole entry): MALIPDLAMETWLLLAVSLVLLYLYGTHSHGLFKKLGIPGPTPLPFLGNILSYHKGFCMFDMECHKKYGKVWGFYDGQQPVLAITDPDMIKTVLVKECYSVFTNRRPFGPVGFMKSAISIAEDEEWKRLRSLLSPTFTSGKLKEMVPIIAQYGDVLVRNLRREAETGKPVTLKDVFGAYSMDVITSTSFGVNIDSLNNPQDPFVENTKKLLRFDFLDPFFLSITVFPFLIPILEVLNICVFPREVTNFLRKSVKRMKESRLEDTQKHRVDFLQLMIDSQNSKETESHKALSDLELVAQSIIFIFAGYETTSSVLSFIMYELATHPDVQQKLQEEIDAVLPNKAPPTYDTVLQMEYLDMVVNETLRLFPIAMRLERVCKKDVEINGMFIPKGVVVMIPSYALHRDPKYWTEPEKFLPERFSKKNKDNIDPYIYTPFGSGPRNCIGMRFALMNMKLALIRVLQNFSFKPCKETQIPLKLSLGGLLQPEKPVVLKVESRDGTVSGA
Chain of Cytochrome P450 2C9 (P11712 whole entry): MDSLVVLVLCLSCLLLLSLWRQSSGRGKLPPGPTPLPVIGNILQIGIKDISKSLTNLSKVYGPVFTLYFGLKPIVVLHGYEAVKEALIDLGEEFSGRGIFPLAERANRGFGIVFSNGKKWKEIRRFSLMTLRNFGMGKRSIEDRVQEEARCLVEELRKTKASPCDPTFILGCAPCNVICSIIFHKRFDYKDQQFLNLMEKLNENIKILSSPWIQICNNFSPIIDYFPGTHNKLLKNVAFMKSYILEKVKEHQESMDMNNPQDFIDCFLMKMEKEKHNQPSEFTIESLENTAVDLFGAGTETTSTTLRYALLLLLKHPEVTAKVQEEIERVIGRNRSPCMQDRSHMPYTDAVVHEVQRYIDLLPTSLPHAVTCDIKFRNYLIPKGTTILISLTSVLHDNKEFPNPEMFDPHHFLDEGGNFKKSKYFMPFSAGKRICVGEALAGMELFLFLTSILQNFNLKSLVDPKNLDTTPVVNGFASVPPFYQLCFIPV

SMILES: CCc1nc(NCCC(C)C)c(C#N)c2c1CCCC2
- IC50 [1]: > 100 µM (inactive)
- IC50 [2]: > 47.1 µM (inactive)
- EC50 [3]: > 53 µM (inactive)

SMILES: Clc1ccc(-c2nnc(-c3ccccc3)o2)cn1
- IC50 [1]: 39.8 µM (active)

SMILES: COc1ccc(/C=C/C(=O)N(C(C)C)C(C)C)cc1Br
- EC50 [4]: 200 µM (active)

SMILES: O=C1/C(=C\c2cccs2)SC(=S)N1C1CCS(=O)(=O)C1 (centres undefined)
- IC50 [1]: > 100 µM (inactive)

SMILES: COc1ccc(-c2nc3cnc(N4CCNCC4)nc3n(C)c2=O)cc1
- AC50 [5]: 12.6 µM (inconclusive)
- AC50 [6]: 31.6 µM (inconclusive)

SMILES: COc1cccc(-c2ccc3ncnc(N4CCNCC4)c3c2)c1
- AC50 [6]: 10 µM (inconclusive)

SMILES: CN(C)c1ccc(C(CNC(=O)c2ccccc2)c2c[nH]c3ccccc23)cc1 (centres undefined)
- EC50 [4]: > 260 µM (inactive)

SMILES: CC(NC(=O)/C=C/c1ccco1)c1nc2ccccc2n1Cc1cccc(Cl)c1 (centres undefined)
- EC50 [4]: > 260 µM (inactive)

SMILES: c1ccc(N2CCN(c3cnc4ccccc4n3)CC2)cc1
- IC50 [1]: 76.2 µM (inactive)

SMILES: CC(=O)NCCNc1nc(-c2ccccc2Cl)nc2ccccc12
- AC50 [6]: 5.01 µM (inconclusive)

SMILES: CC(=O)N1CSCC1C(=O)NNS(=O)(=O)c1cccc(C(F)(F)F)c1 (centres undefined)
- EC50 [4]: > 260 µM (inactive)

SMILES: N[C@@H](CC1=CS(=O)(=O)c2ccc(Cl)cc21)C(=O)O
- AC50 [5]: 0.398 µM (inconclusive)
- AC50 [7]: 6.31 µM (inconclusive)
- AC50 [6]: 5.01 µM (inconclusive)

SMILES: Cc1ccccc1OCc1nnc2c3cnn(C)c3ncn12
- EC50 [8]: 38.8 µM (active)
- EC50 [9]: 16.8 µM (active)

SMILES: CC(=O)N1CCC[C@@]2(CCN(Cc3nccs3)C2)C1
- AC50 [6]: 31.6 µM (inconclusive)

SMILES: COC(=O)c1[nH]c2ccccc2c1NC(=O)C(C)N1CCOCC1 (centres undefined)
- IC50 [1]: > 100 µM (inactive)

SMILES: COc1ccc(Nc2oc(-c3ccc(F)cc3)nc2C#N)cc1
- EC50 [8]: > 120 µM (not active)
- EC50 [9]: 15.1 µM (active)

SMILES: CSc1ccc(S(=O)(=O)N2CCC(C(=O)Nc3ccccc3C(F)(F)F)CC2)cc1
- IC50 [1]: > 100 µM (inactive)

SMILES: CCn1cc(C(=O)OCC(=O)NCc2ccc3c(c2)OCO3)c(=O)c2ccc(C)nc21
- IC50 [1]: > 100 µM (inactive)

SMILES: Cc1cc(C)n(-c2nc3ccccc3n3cnnc23)n1
- IC50 [1]: > 100 µM (inactive)

SMILES: Fc1ccc(-c2cnn3c(-c4ccncc4)ccnc23)cc1
- IC50 [1]: > 100 µM (inactive)

SMILES: COc1cc(-c2cn(S(=O)(=O)c3cccc4nsnc34)nc2N)cc(OC)c1OC
- EC50 [4]: > 260 µM (inactive)

SMILES: Cc1csc(NC(=O)CNS(=O)(=O)c2cccs2)n1
- AC50 [6]: 17.8 µM (inconclusive)

SMILES: COc1cccc(CNCc2ccc(SC)cc2)c1OC
- AC50 [6]: 11.2 µM (inconclusive)

SMILES: O=C(Nc1ccccc1C(=O)N1CCCC1)c1ncoc1-c1cccc(Cl)c1
- EC50 [4]: > 260 µM (inactive)

SMILES: O=C(CN1CCN(S(=O)(=O)N2CCCCC2)CC1)Nc1cc(Cl)cc(Cl)c1
- IC50 [1]: > 100 µM (inactive)

SMILES: N#CC(c1ccccn1)(c1ncc(C(F)(F)F)cc1Cl)N1CCOCC1 (centres undefined)
- AC50 [6]: 35.5 µM (inconclusive)

SMILES: N#C/C(=C(\O)C(F)(F)F)c1nnc2n1CCCCC2
- EC50 [4]: > 260 µM (inactive)

SMILES: COc1cc(/C=N/NC(=O)c2ccncc2)ccc1OC(=O)c1ccc([N+](=O)[O-])cc1
- AC50 [7]: 3.55 µM (inconclusive)
- AC50 [6]: 0.891 µM (inconclusive)

SMILES: CO/C(O)=C1/C(C)=NC2=C(C(=O)CC(C)(C)C2)C1c1cn(Cc2ccc(Br)cc2)nc1-c1ccccc1 (centres undefined)
- EC50 [4]: > 260 µM (inactive)

SMILES: COc1ccc(/C(C)=N/NC(=S)NCc2ccco2)cc1
- EC50 [4]: > 260 µM (inactive)

SMILES: CCOC(=O)C1=C(Nc2ccccc2)CC(C)(O)C(C(=O)OCC)C1c1ccc(Cl)cc1 (centres undefined)
- IC50 [1]: > 100 µM (inactive)

SMILES: C[C@@H](N)Cn1ccc2cc(F)c(Cl)cc21
- AC50 [6]: 39.8 µM (inconclusive)

SMILES: N#C/C(=C\c1ccc(Sc2ccccc2)o1)c1nc2ccccc2[nH]1
- EC50 [10]: > 60 µM (inconclusive)
- EC50 [8]: 23 µM (active)
- EC50 [11]: 1.42 µM (active)
- EC50 [9]: 0.561 µM (active)
